Experimental data: ChEMBL document CHEMBL1147715, “Gatifloxacin derivatives: synthesis, antimycobacterial activities, and inhibition of Mycobacterium tuberculosis DNA gyrase” (Bioorg Med Chem Lett, 2006)
Values after ≈ are worked out from the molar mass of the structure shown.

Key:
[1] = test system: Mycobacterium tuberculosis; assay: Antimycobacterial activity against Mycobacterium tuberculosis H37Rv; format: functional
[2] = test system: Vero; assay: Cytotoxicity against Vero cell line at 62.5 ug/ml after 72 hrs; format: functional, cell-based; conditions: Chlorocebus sabaeus
[3] = Inhibition of Mycobacterium tuberculosis DNA gyrase
[4] = test system: Mycobacterium tuberculosis; assay: Activity against Mycobacterium tuberculosis ATCC 35801 in CD1 mouse at 50 mg/kg assessed as decrease in bacterial load in spleen relative to control; format: functional
[5] = test system: Mycobacterium tuberculosis; assay: Activity against Mycobacterium tuberculosis ATCC 35801 in CD1 mouse at 50 mg/kg assessed as decrease in bacterial load in lung relative to control; format: functional
[6] = test system: Mycobacterium tuberculosis; assay: Selectivity index (IC50/MIC); format: functional

SMILES	MIC [1]	Activity [2]	IC50 [3]	Log10 cfu [4]	Log10 cfu [5]	Selectivity index [6]
COc1c(N2CCN(CN3C(=O)/C(=N\c4ccc(S(=O)(=O)Nc5ncccn5)cc4)c4cc(F)ccc43)C(C)C2)c(F)cc2c(=O)c(C(=O)O)cn(C3CC3)c12 (centres undefined)	0.2 µg/mL (≈ 0.255 µM)	Not toxic	6 µg/mL (≈ 7.65 µM)	–	–	–
COc1c(N2CCN(Cn3c(O)c(/N=N/C(=N)S)c4cc(Cl)ccc43)C(C)C2)c(F)cc2c(=O)c(C(=O)O)cn(C3CC3)c12 (centres undefined)	0.39 µg/mL (≈ 0.607 µM)	Not toxic	4 µg/mL (≈ 6.23 µM)	–	–	–
COc1c(N2CCN(CN3C(=O)/C(=N\c4ccc(S(=O)(=O)Nc5ncccn5)cc4)c4ccccc43)C(C)C2)c(F)cc2c(=O)c(C(=O)O)cn(C3CC3)c12 (centres undefined)	0.2 µg/mL (≈ 0.261 µM)	Not toxic	8 µg/mL (≈ 10.4 µM)	–	–	–
COc1c(N2CCNC(C)C2)c(F)cc2c(=O)c(C(=O)O)cn(C3CC3)c12 (centres undefined) [GATIFLOXACIN]	0.2 µg/mL (≈ 0.533 µM)	–	4 µg/mL (≈ 10.7 µM)	6.14	5.82	–
COc1c(N2CCN(Cn3c(O)c(/N=N/C(=N)S)c4ccccc43)C(C)C2)c(F)cc2c(=O)c(C(=O)O)cn(C3CC3)c12 (centres undefined)	0.2 µg/mL (≈ 0.329 µM)	Not toxic	5 µg/mL (≈ 8.23 µM)	–	–	–
COc1c(N2CCN(Cn3c(O)c(/N=N/C(N)=O)c4ccccc43)C(C)C2)c(F)cc2c(=O)c(C(=O)O)cn(C3CC3)c12 (centres undefined)	0.0125 µg/mL (≈ 0.0211 µM)	Not toxic	3 µg/mL (≈ 5.07 µM)	5.08	4.26	> 1250
COc1c(N2CCN(Cn3c(O)c(/N=N/C(=O)c4ccncc4)c4cc(F)ccc43)C(C)C2)c(F)cc2c(=O)c(C(=O)O)cn(C3CC3)c12 (centres undefined)	0.78 µg/mL (≈ 1.16 µM)	Not toxic	–	–	–	–
COc1c(N2CCN(Cn3c(O)c(/N=N/C(N)=O)c4cc(F)ccc43)C(C)C2)c(F)cc2c(=O)c(C(=O)O)cn(C3CC3)c12 (centres undefined)	0.2 µg/mL (≈ 0.328 µM)	Not toxic	4 µg/mL (≈ 6.56 µM)	–	–	–
COc1c(N2CCN(Cn3c(O)c(/N=N/C(N)=O)c4cc(Cl)ccc43)C(C)C2)c(F)cc2c(=O)c(C(=O)O)cn(C3CC3)c12 (centres undefined)	0.39 µg/mL (≈ 0.623 µM)	Not toxic	4 µg/mL (≈ 6.39 µM)	–	–	–
COc1c(N2CCN(Cn3c(O)c(/N=N/C(=N)S)c4cc(C)ccc43)C(C)C2)c(F)cc2c(=O)c(C(=O)O)cn(C3CC3)c12 (centres undefined)	0.78 µg/mL (≈ 1.25 µM)	Not toxic	10 µg/mL (≈ 16.1 µM)	–	–	–
COc1c(N2CCN(CN3C(=O)/C(=N\c4ccc(S(=O)(=O)Nc5ncccn5)cc4)c4cc(C)ccc43)C(C)C2)c(F)cc2c(=O)c(C(=O)O)cn(C3CC3)c12 (centres undefined)	0.1 µg/mL (≈ 0.128 µM)	Not toxic	3 µg/mL (≈ 3.84 µM)	–	–	–
COc1c(N2CCN(Cn3c(O)c(/N=N/C(N)=O)c4cc(C)ccc43)C(C)C2)c(F)cc2c(=O)c(C(=O)O)cn(C3CC3)c12 (centres undefined)	0.39 µg/mL (≈ 0.644 µM)	Not toxic	4.5 µg/mL (≈ 7.43 µM)	–	–	–
COc1c(N2CCN(Cn3c(O)c(/N=N/C(=O)c4ccncc4)c4cc(C)ccc43)C(C)C2)c(F)cc2c(=O)c(C(=O)O)cn(C3CC3)c12 (centres undefined)	0.78 µg/mL (≈ 1.17 µM)	Not toxic	5.5 µg/mL (≈ 8.24 µM)	–	–	–
COc1c(N2CCN(Cn3c(O)c(/N=N/C(=O)c4ccncc4)c4cc(Cl)ccc43)C(C)C2)c(F)cc2c(=O)c(C(=O)O)cn(C3CC3)c12 (centres undefined)	0.39 µg/mL (≈ 0.567 µM)	Not toxic	5 µg/mL (≈ 7.27 µM)	–	–	–
COc1c(N2CCN(Cn3c(O)c(/N=N/C(=O)c4ccncc4)c4ccccc43)C(C)C2)c(F)cc2c(=O)c(C(=O)O)cn(C3CC3)c12 (centres undefined)	0.78 µg/mL (≈ 1.19 µM)	Not toxic	4 µg/mL (≈ 6.12 µM)	–	–	–
COc1c(N2CCN(Cn3c(O)c(/N=N/C(=N)S)c4cc(F)ccc43)C(C)C2)c(F)cc2c(=O)c(C(=O)O)cn(C3CC3)c12 (centres undefined)	0.1 µg/mL (≈ 0.16 µM)	Not toxic	8 µg/mL (≈ 12.8 µM)	–	–	–
COc1c(N2CCN(CN3C(=O)/C(=N\c4ccc(S(=O)(=O)Nc5ncccn5)cc4)c4cc(Cl)ccc43)C(C)C2)c(F)cc2c(=O)c(C(=O)O)cn(C3CC3)c12 (centres undefined)	0.1 µg/mL (≈ 0.125 µM)	Not toxic	6 µg/mL (≈ 7.49 µM)	–	–	–
